Source: patent publication US6559167B1, “Prodrugs of proton pump inhibitors” (Regents of the University of California, priority 1998, dated 2003)
Values joined by “and” are separate entries in the source; they are usually repeats but may differ in a detail not shown here. Equal values may be shown once.

Columns and labels:
[1] = system: gastric acid secretion of the conscious male rat; test: Inhibitory effect on gastric acid secretion of the conscious male rat at timed intervals after oral administration; type: in vivo; design: inhibition of gastric acid secretion: concentration or dose not given beside the values; conditions: for inhibition of gastric acid secretion: after 5 hr of oral administration; for % inhibition of gastric acid secretion: male rat
[2] = Chemical stability: hydrolysis half-life in buffer solution at various pH; type: physicochemical
Text: By way of concrete examples, the following tests and results are described. […] This is consistent with the knowledge that the compounds obtained by hydrolysis e. g. LANSOPRAZOLE, OMEPRAZOLE, PANTOPRAZOLE and RABEPRAZOLE are well known H,K-ATPase inhibitors. […] Another good example is 2-(2-carbamoylmethoxy-4-{2-[4-(3-methoxypropoxy)-3-methyl pyridin-2-yl methylsulfinyl]benzimidazole-1-sulfonyl}phenoxy)acetamide. The half life of this compound dependes on pH. […] Based on these measured characteristics the compound 2-(2-carbamoylmethoxy-4-{2-[4-(3-methoxypropoxy)-3-methyl pyridin-2-yl methylsulfinyl]benzimidazole-1-sulfonyl}phenoxy)acetamide is expected to be well absorbed, and slowly release the parent RABEPRAZOLE in the blood, resulting in long-lasting in vivo activity. This compound can also be administered intravenously in an aqueous solution at pH 7.4 which solution may include 2-hydroxypropyl-β-cyclodextrin.
The chemical stability of the compounds of the invention has been followed kinetically at low concentration at 37° C. in a buffer solution composed of 0.2M NaCl, 50 mM sodium phosphate, pH 7.4, 2% bovine albumin serum, 5-10% methanol.
The hydrolysis of 2-(2-carbamoylmethoxy-4-{2-[4-(3-methoxy-propoxy)-3-methyl-pyridin-2-ylmethanesulfinyl]-benzimidazole-1-sulfonyl}-phenoxy)-acetamide was measured at various pH.

[3] = Relative plasma concentration of OMEPRAZOLE in male rat after oral administration; conditions: male rat;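 further: Sprague-Dawley rats fasted one day with water available, dosed orally with prodrug compounds, OMEPRAZOLE quantified by HPLC in plasma from serial blood draws, control given OMEPRAZOLE itself orally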
Procedure: Male adult rats of the Sprague-Dawley strain were used for determining the concentration of OMEPRAZOLE in the plasma. All rats were derived of food but not of water for one day. Examples of compounds of the invention (2 mg/kg of rat weight) were orally administrated to male rats (weighing 250 g to 270 g) and blood samples (0.3 ml) were taken at timed intervals. Blood samples were centrifuged and plasma was taken out. Plasma was extracted with 0.5 ml of dichloromethane. Dichloromethane layer was evaporated by nitrogen/air blowing. The residual materials were dissolved in 0.5 ml of 40% acetonitrile in 10 mM phosphate buffer (pH 7.4). Amounts of OMEPRAZOLE were determined by HPLC analysis. As a control, OMEPRAZOLE (4 mg/kg of rat weight) was orally administrated.

[4] = system: gastric acid secretion (histamine-stimulated acid output), pylorus-ligated male rats; test: Initial inhibition of gastric acid secretion after intraduodenal administration to pylorus-ligated rats; type: in vivo; conditions: 10 μmole/kg, after pylorus ligation, histamine 30 mg/kg s.c., acid output over four hours, rat
Procedure: Histamine (30 mg/kg) was subcutaneously injected to stimulate acid production. The abdomen was surgically closed immediately. Four hours later the esophagus was ligated and the stomach was removed. Acid output was measured as described above.

[5] = between 4-7 hr after oral administration
[6] = 20 min after oral administration, examples 2 mg/kg, OMEPRAZOLE 4 mg/kg
[7] = 40 min after oral administration, examples 2 mg/kg, OMEPRAZOLE 4 mg/kg
[8] = 60 min after oral administration, examples 2 mg/kg, OMEPRAZOLE 4 mg/kg
[9] = 80 min after oral administration, examples 2 mg/kg, OMEPRAZOLE 4 mg/kg
[10] = 100 min after oral administration, examples 2 mg/kg, OMEPRAZOLE 4 mg/kg
[11] = 120 min after oral administration, examples 2 mg/kg, OMEPRAZOLE 4 mg/kg
[12] = 140 min after oral administration, 2 mg/kg
[13] = 160 min after oral administration, 2 mg/kg
[14] = 180 min after oral administration, 2 mg/kg
[15] = 210 min after oral administration, 2 mg/kg
[16] = 240 min after oral administration, 2 mg/kg
[17] = 270 min after oral administration, 2 mg/kg
[18] = 300 min after oral administration, 2 mg/kg
[19] = 330 min after oral administration, 2 mg/kg
[20] = 360 min after oral administration, 2 mg/kg
[21] = between 5-8 hours after oral administration, 10 μmole/kg, histamine and carbachol stimulated
[22] = between 5.5-8.5 hours after oral administration, 10 μmole/kg, histamine and carbachol stimulated

COCCCOc1ccnc(C[S+]([O-])c2nc3ccccc3n2S(=O)(=O)c2ccc(OCC(N)=O)c(OCC(N)=O)c2)c1C (stereo not shown) [Example 77, 2-(2-carbamoylmethoxy-4-{2-[4-(3-methoxypropoxy)-3-methylpyridin-2-ylmethylsulfinyl]benzimidazole-1-sulfonyl}phenoxy)acetamide]
inhibition of gastric acid secretion [1]: 56% | % inhibition of gastric acid secretion [1, 5]: 56% | half-life of hydrolysis ([2]; 2 mg/mL, pH 7.4): 3.73 h | half-life ([2]; bovine, pH 7.4, half-life of hydrolysis): ~1330 min | half-life of hydrolysis ([2]; buffer, pH 2): 1.8 h | half-life ([2]; buffer, pH 2, half-life of hydrolysis): ~108 min | half-life of hydrolysis ([2]; buffer, pH 8): 10.7 h | half-life ([2]; buffer, pH 8, half-life of hydrolysis): ~642 min | half-life at 2 mg/mL ([2]; pH 7.4, half-life of hydrolysis): ~222 min

1-[4-[3-(morpholin-4-yl) propoxy]benzenesulfonyl]-5-methoxy-2-[[(3,5-dimethyl-4-methoxy-2-pyridyl)methyl]sulfinyl]-1H-benzimidazole and 1-[4-[3-(morpholin-4-yl) propoxy]benzenesulfonyl]-6-methoxy-2-[[(3.5-dimethyl-4-methoxy-2-pyridyl)methyl]sulfinyl]-1H-benzimidazole [Example 37]
Relative concentration of OMEPRAZOLE released in the plasma [3, 6]: 1.67 arbitrary unit | Relative concentration of OMEPRAZOLE released in the plasma [3, 7]: 14.36 arbitrary unit | Relative concentration of OMEPRAZOLE released in the plasma [3, 8]: 3.5 arbitrary unit | Relative concentration of OMEPRAZOLE released in the plasma [3, 9]: 1.88 arbitrary unit | Relative concentration of OMEPRAZOLE released in the plasma [3, 10]: 1.88 arbitrary unit | Relative concentration of OMEPRAZOLE released in the plasma [3, 11]: 1.5 arbitrary unit | Relative concentration of OMEPRAZOLE released in the plasma [3, 12]: 1.5 arbitrary unit | Relative concentration of OMEPRAZOLE released in the plasma [3, 13]: 1 arbitrary unit | Relative concentration of OMEPRAZOLE released in the plasma [3, 14]: 1 arbitrary unit | Relative concentration of OMEPRAZOLE released in the plasma [3, 15]: 0.7 arbitrary unit | Relative concentration of OMEPRAZOLE released in the plasma [3, 16]: 0.7 arbitrary unit | Relative concentration of OMEPRAZOLE released in the plasma [3, 17]: 0.7 arbitrary unit | Relative concentration of OMEPRAZOLE released in the plasma [3, 18]: 0.4 arbitrary unit | Relative concentration of OMEPRAZOLE released in the plasma [3, 19]: 0.2 arbitrary unit | Relative concentration of OMEPRAZOLE released in the plasma [3, 20]: 0.1 arbitrary unit | Relative concentration of OMEPRAZOLE released in the plasma ([3]; 390 min after oral administration, 2 mg/kg): 0.1 arbitrary unit

N-[4-[[5-methoxy-2-[[(3,5-dimethyl-4-methoxy-2-pyridyl)methyl]sulfinyl]benzimidazol-1-yl]sulfonyl]phenyl]urea and N-[4-[[6-methoxy-2-[[(3,5-dimethyl-4-methoxy-2-pyridyl)methyl]sulfinyl]benzimidazol-1-yl]sulfonyl]phenyl]urea [Example 29]
Relative concentration of OMEPRAZOLE released in the plasma [3, 6]: 4.5 arbitrary unit | Relative concentration of OMEPRAZOLE released in the plasma [3, 7]: 14 arbitrary unit | Relative concentration of OMEPRAZOLE released in the plasma [3, 8]: 8.5 arbitrary unit | Relative concentration of OMEPRAZOLE released in the plasma [3, 9]: 3.5 arbitrary unit | Relative concentration of OMEPRAZOLE released in the plasma [3, 10]: 2.5 arbitrary unit | Relative concentration of OMEPRAZOLE released in the plasma [3, 11]: 1.875 arbitrary unit | Relative concentration of OMEPRAZOLE released in the plasma [3, 12]: 0.625 arbitrary unit | Relative concentration of OMEPRAZOLE released in the plasma [3, 13]: 0.6 arbitrary unit | Relative concentration of OMEPRAZOLE released in the plasma [3, 14]: 0.6 arbitrary unit | Relative concentration of OMEPRAZOLE released in the plasma [3, 15]: 1.5 arbitrary unit | Relative concentration of OMEPRAZOLE released in the plasma [3, 16]: 0.5 arbitrary unit | Relative concentration of OMEPRAZOLE released in the plasma [3, 17]: 0.5 arbitrary unit | Relative concentration of OMEPRAZOLE released in the plasma [3, 18]: 0.2 arbitrary unit | Relative concentration of OMEPRAZOLE released in the plasma [3, 19]: 0.1 arbitrary unit | Relative concentration of OMEPRAZOLE released in the plasma [3, 20]: 0.05 arbitrary unit

1-(Pyridine-3-sulfonyl)-5-methoxy-2-[[(3,5-dimethyl-4-methoxy-2-pyridylmethyl]sulfinyl]-1H-benzimidazole and 1-(pyridine-3-sulfonyl-6-methoxy-2-[[(3,5-dimethyl-4-methoxy-2-pyridyl)methyl]sulfinyl]-1H-benzimidazole [Example 25]
% inhibition of gastric acid secretion [1, 21]: 61% and 61.3 ± 16.1%

Cc1c(OCC(F)(F)F)ccnc1C[S+]([O-])c1nc2ccccc2n1S(=O)(=O)c1ccc(OCC(N)=O)cc1 (stereo not shown) [Example 54]
% inhibition of gastric acid secretion [1, 5]: 46.9% | % inhibition of gastric acid secretion ([1]; between 4-7 hr after oral administration, listed as 2-(4-{[2-({[3-Methyl-4-(2,2,2-trifluoroethoxy)-2-pyridyl]methyl}sulfinyl) benzim)): 46.9%

N-(2-{4-[5-methoxy-2-(4-methoxy-3,5-dimethyl pyridin-2-yl methylsulfinyl)benzimidazole-1-sulfonyl]-phenoxy}ethyl)-N,N,N-trimethyl ammonium trifluoromethanesulfonate and N-(2-{4-[6-methoxy-2-(4-methoxy-3,5-dimethyl pyridin-2-yl methylsulfinyl)benzimidazole-1-sulfonyl]-phenoxy}ethyl)-N,N,N-trimethyl ammonium trifluoromethanesulfonate [Example 73]
% inhibition of gastric acid secretion [1, 21]: 21.8 ± 11.7%

N-(carbamoylmethyl)-2-{4-[(5-methoxy-2-{[(3,5-dimethyl-4-methoxy-2-pyridyl)methyl]sulfinyl}benzimidazol-1-yl)sulfonyl]phenoxy}acetamide and N-(carbamoylmethyl)-2-{4-[(6-methoxy-2-{[(3.5-dimethyl-4-methoxy-2-pyridyl)methyl]sulfinyl}benzimidazol-1-yl)sulfonyl]phenoxy}acetamide [Example 62]
% inhibition of gastric acid secretion [1, 22]: 14.1 ± 7.5%

2-{4-[(5-methoxy-2-{[(3.5-dimethyl-4-methoxy-2-pyridyl)methyl]sulfinyl}benzimidazol-1-yl)sulfonyl]phenoxy}acetamide and 2-{4-[(6-methoxy-2-{[(3,5-dimethyl-4-methoxy-2-pyridyl)methyl]sulfinyl}benzimidazol-1-yl)sulfonyl]phenoxy}acetamide [Example 53]
% inhibition of gastric acid secretion [1, 21]: 65.2 ± 11.3%

Cc1c(OCC(F)(F)F)ccnc1C[S+]([O-])c1nc2ccccc2[nH]1 (stereo not shown) [LANSOPRAZOLE, reference compound]
% inhibition of gastric acid secretion [1, 5]: 29% | % inhibition of gastric acid secretion ([1]; between 4-7 hr after oral administration, listed as LANOPRAZOLE): 29%

Cc1c(OCC(F)(F)F)ccnc1C[S+]([O-])c1nc2ccccc2n1S(=O)(=O)c1ccc(OCC(N)=O)c(OCC(N)=O)c1 (stereo not shown) [Example 79, 2-(2-Carbamoylmethoxy-4-{2-[3-methyl-4-(2,2,2-trifluoro-ethoxy)-pyridin-2-ylmethanesulfinyl]-benzimidazole-1-sulfonyl}-phenoxy)-acetamide]
% inhibition of gastric acid secretion [1, 5]: 36.8%

2-{2-carbamoylmethoxy-4-[5-methoxy-2-((4-methoxy-3,5-dimethyl pyridin-2-yl)methylsulfinyl)benzimidazole-1-sulfonyl]phenoxy}acetamide and 2-{2-carbamoylmethoxy-4-[6-methoxy-2-((4-methoxy-3,5-dimethyl pyridin-2-yl)methylsulfinyl)benzimidazole-1-sulfonyl]phenoxy}acetamide [Example 74]
gastric acid secretion after administration to male rat (in words) ([1]; administrated to male rat): significantly and continuously inhibited | % inhibition of gastric acid secretion [1, 22]: 49.7 ± 3.7% | % inhibition of gastric acid secretion ([1]; between 5.5-8.5 hours after oral administration, 10 μmole/kg, histamine and carbachol stimulated, listed as 2-{2-carbamoylmethoxy-4-[5-methoxy-2-(4-methoxy-3,5-dimethyl pyridin-2-yl)metha): 49.7% | inhibition of histamine-stimulated acid output [4]: 64.2%

COCCCOc1ccnc(C[S+]([O-])c2nc3ccccc3[nH]2)c1C (stereo not shown) [RABEPRAZOLE, reference compound]
inhibition of gastric acid secretion [1]: 32% | % inhibition of gastric acid secretion [1, 5]: 32%
